Calls of active or inactive are those of the source. The calls are words filed in the database; no cut-off is given here.
Legend:
Acetylcholinesterase [1] = target: T1, Acetylcholinesterase (Homo sapiens, UniProt P22303); test: Inhibition of recombinant human erythrocyte AChE using acetylthiocholine iodide as substrate preincubated for 30 mins followed by substrate addition and measured after 30 mins by spectrophotometry based Ellman's method
[2] = target: Cholinesterase (Equus caballus) (UniProt P81908); test: Inhibition of […] equine serum BuChE at 20 uM using butyryl thiocholine iodide as substrate preincubated for 30 mins followed by substrate addition and measured after 30 mins by spectrophotometry based Ellman's method relative to control; assay type: cell-free; settings: time 60.0 min
[3] = Antioxidant activity assessed as DPPH radical scavenging activity incubated for 25 mins in shaker; assay type: functional
[4] = target: Cholinesterase (Homo sapiens) (UniProt P06276); test: Inhibition of BuChE (unknown origin) at 20 uM relative to control
Mus musculus [5] = test: Ex vivo antioxidant activity in brain of scopolamine-induced Swiss albino mouse model of amnesia assessed as decrease in MDA level at 12.5 to 25 mg/kg, po administered for 7 days and observed after 30 mins before scopolamine treatment and measured after 15 mins; assay type: functional, organism-based; settings: dose 12.5-25 mg/kg, time 7.0 day
Acetylcholinesterase [6] = target: T1, Acetylcholinesterase; test: Inhibition of recombinant human erythrocyte AChE at 20 uM using acetylthiocholine iodide as substrate preincubated for 30 mins followed by substrate addition and measured after 30 mins by spectrophotometry based Ellman's method relative to control; settings: time 60.0 min
Mus musculus [7] = test: Ex vivo antioxidant activity in brain of scopolamine-induced Swiss albino mouse model of amnesia assessed as increase in SOD level at 12.5 to 25 mg/kg, po administered for 7 days and observed after 30 mins before scopolamine treatment and measured after 15 mins; assay type: functional, organism-based; settings: dose 12.5-25 mg/kg, time 7.0 day
Acetylcholinesterase [8] = target: T1, Acetylcholinesterase; test: Inhibition of AChE (unknown origin) at 20 uM relative to control
[9] = Antioxidant activity assessed as DPPH radical scavenging activity at 20 uM incubated for 25 mins in shaker relative to control; assay type: functional
Mus musculus [10] = test: Memory enhancement effect in scopolamine-induced Swiss albino mouse model of amnesia assessed as effect on total arm entries at 12.5 to 25 mg/kg, po administered for 7 days and observed after 30 mins before scopolamine treatment and measured after 15 mins by Y-maze test; assay type: functional, organism-based; settings: dose 12.5-25 mg/kg, time 7.0 day
Homo sapiens = species: Homo sapiens; test: Disruption of human amyloid beta 1 to 42 assessed as effect on amyloid beta 1 to 42 morphology at 1.58 uM incubated for 10 days by atomic force microscopic analysis; settings: time 10.0 day
Mus musculus [11] = test: Ex vivo inhibition of AChE in brain of scopolamine-induced Swiss albino mouse model of amnesia at 12.5 to 25 mg/kg, po administered for 7 days and observed after 30 mins before scopolamine treatment and measured after 15 mins using acetylthiocholine iodide as substrate by Ellman's method; assay type: functional, organism-based; settings: dose 12.5-25 mg/kg, time 7.0 day
Mus musculus [12] = test: Memory enhancement effect in scopolamine-induced Swiss albino mouse model of amnesia assessed as increase in spontaneous alteration at 12.5 to 25 mg/kg, po administered for 7 days and observed after 30 mins before scopolamine treatment and measured after 15 mins by Y-maze test; assay type: functional, organism-based; settings: dose 12.5-25 mg/kg, time 7.0 day
Mus musculus [13] = test: Ex vivo inhibition of BChE in brain of scopolamine-induced Swiss albino mouse model of amnesia at 12.5 to 25 mg/kg, po administered for 7 days and observed after 30 mins before scopolamine treatment and measured after 15 mins using butyryl thiocholine iodide as substrate by Ellman's method; assay type: functional, organism-based; settings: dose 12.5-25 mg/kg, time 7.0 day
Mus musculus [14] = test: Ex vivo antioxidant activity in brain of scopolamine-induced Swiss albino mouse model of amnesia assessed as increase in CAT level at 12.5 to 25 mg/kg, po administered for 7 days and observed after 30 mins before scopolamine treatment and measured after 15 mins; assay type: functional, organism-based; settings: dose 12.5-25 mg/kg, time 7.0 day
Cholinesterase = Cholinesterase (Equus caballus, UniProt P81908); test: Inhibition of […] equine serum BuChE using butyryl thiocholine iodide as substrate preincubated for 30 mins followed by substrate addition and measured after 30 mins by spectrophotometry based Ellman's method; assay type: cell-free
[15] = Metal chelating activity assessed as Fe3+-compound complex formation at 300 uM measured for 30 mins by MS-MS analysis
[16] = Metal chelating activity assessed as Fe3+-compound complex formation at 300 uM measured for 30 mins by UV-Visible spectrophotometric method

T1 sequence (P22303 whole entry): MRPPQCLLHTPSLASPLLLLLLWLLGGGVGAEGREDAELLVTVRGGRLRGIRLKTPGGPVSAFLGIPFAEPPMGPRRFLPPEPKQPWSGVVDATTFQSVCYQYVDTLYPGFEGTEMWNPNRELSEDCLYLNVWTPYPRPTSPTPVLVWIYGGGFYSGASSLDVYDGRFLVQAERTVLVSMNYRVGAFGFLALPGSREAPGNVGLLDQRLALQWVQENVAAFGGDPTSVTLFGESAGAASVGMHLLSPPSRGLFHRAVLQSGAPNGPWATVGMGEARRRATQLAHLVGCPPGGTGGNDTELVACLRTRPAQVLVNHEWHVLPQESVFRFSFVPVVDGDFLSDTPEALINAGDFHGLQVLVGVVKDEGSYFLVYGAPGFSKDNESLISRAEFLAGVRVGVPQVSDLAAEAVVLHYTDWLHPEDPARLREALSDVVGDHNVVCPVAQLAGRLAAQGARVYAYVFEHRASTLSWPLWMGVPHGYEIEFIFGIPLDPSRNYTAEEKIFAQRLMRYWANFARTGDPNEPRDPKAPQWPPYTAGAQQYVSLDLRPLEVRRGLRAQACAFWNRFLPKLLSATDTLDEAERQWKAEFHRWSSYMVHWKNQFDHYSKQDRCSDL
Cholinesterase (Equus caballus), sequence (P81908 whole entry): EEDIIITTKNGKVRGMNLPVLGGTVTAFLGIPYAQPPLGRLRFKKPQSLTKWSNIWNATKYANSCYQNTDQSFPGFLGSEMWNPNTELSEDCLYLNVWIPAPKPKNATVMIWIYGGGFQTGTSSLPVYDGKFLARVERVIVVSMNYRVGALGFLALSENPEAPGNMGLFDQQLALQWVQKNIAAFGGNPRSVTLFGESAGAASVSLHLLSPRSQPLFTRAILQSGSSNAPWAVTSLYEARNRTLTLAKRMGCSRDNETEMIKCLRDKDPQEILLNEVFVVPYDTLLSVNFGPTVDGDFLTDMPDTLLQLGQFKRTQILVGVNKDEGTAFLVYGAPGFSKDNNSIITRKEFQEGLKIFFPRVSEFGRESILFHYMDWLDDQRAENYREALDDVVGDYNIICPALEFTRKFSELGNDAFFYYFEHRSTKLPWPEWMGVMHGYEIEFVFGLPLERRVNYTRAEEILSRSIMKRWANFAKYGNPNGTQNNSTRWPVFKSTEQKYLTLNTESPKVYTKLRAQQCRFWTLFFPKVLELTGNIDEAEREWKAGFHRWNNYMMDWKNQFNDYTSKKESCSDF
Cholinesterase, sequence (P81908 whole entry): as above
Cholinesterase (Homo sapiens), sequence (P06276 whole entry): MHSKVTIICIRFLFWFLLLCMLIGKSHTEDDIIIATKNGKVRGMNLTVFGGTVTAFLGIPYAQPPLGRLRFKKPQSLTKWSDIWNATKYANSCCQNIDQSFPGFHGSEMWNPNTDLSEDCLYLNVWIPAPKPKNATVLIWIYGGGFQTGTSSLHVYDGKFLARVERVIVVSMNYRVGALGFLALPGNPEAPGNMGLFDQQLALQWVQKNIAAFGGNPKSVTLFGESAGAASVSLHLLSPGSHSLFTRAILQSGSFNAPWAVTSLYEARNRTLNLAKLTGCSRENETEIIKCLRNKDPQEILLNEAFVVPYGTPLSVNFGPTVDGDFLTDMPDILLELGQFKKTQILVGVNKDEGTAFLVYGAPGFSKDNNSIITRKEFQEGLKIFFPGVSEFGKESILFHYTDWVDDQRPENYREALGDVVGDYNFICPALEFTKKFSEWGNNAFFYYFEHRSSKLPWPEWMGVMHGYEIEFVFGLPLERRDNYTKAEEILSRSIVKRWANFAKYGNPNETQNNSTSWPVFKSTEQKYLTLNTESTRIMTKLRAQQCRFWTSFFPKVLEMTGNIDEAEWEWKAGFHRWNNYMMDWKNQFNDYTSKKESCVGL

Structure (SMILES)	IC50 (Acetylcholinesterase [1]) [µM]	inhibition [2] [%]	IC50 [3] [µM]	Activity [9] [%]	other results
COc1cc(/C=C/C(=O)NCC(=O)Nc2ccccc2C)ccc1O	16.3	36.8			
COc1cc(/C=C/C(=O)O)ccc1O [FERULATE]		19.7	56.5	28.6	inhibition [4]: < 20%; Activity (Mus musculus [5]): Active; inhibition (Acetylcholinesterase [6]): < 10%; Activity (Mus musculus [7]): Active; inhibition (Acetylcholinesterase [8]): < 20%; Activity (Mus musculus [10]): inactive; Activity (Homo sapiens): Active; Activity (Mus musculus [11]): inactive; Activity (Mus musculus [12]): inactive; Activity (Mus musculus [13]): inactive; Activity (Mus musculus [14]): Active
COc1cc(/C=C/C(=O)NCC(=O)Nc2cccc(C(F)(F)F)c2)ccc1O	9.31	34.9			
COc1cc(/C=C/C(=O)NCC(=O)Nc2cccc(Cl)c2)ccc1O	5.68	48.5	108	12.7	
COc1cc(/C=C/C(=O)NCC(=O)Nc2ccc(Cl)cc2)ccc1O	3.43	46.9	101	16.7	
COc1cc(/C=C/C(=O)N2CCN(c3ccc(Cl)cc3)CC2)ccc1O	11.1	33.2			
COc1cc(/C=C/C(=O)N2CCN(c3ccccc3)CC2)ccc1O	29.3	37			
COc1cc(/C=C/C(=O)NCC(=O)Nc2ccc(Br)cc2)ccc1O	10.2	39.3			
COc1ccc(NC(=O)CNC(=O)/C=C/c2ccc(O)c(OC)c2)cc1	17.3	49.9	91.2	23.6	IC50 (Cholinesterase): 19.5 µM
COc1cc(/C=C/C(=O)NCC(=O)Nc2cccc(C)c2)ccc1O	18.9	36.1			
COc1cc(/C=C/C(=O)NCC(=O)Nc2ccccc2OC)ccc1O	5.75	43.3			
COc1cc(/C=C/C(=O)NCC(=O)Nc2cccc(Br)c2)ccc1O	13.1	36.6			
COc1cc(/C=C/C(=O)NCC(=O)Nc2ccccc2C(F)(F)F)ccc1O	15.1	43.2			
COc1cccc(N2CCN(C(=O)/C=C/c3ccc(O)c(OC)c3)CC2)c1	9.91	26.9	62	28.8	
COc1cc(/C=C/C(=O)NCC(=O)Nc2ccc(C(F)(F)F)cc2)ccc1O	8.23	37.2			
COc1cccc(NC(=O)CNC(=O)/C=C/c2ccc(O)c(OC)c2)c1	2.42	55.4	94.3	19.1	IC50 (Cholinesterase): 15.3 µM; Activity [15]: Active; Activity [16]: Active
